In patent US20040037837A1 (priority 2000, published 2004):

Legend:
[1] = tested on: autologous monocyte-derived macrophages infected with M. bovis BCG, M. tuberculosis or rVV expressing Ag85A; type: cell-based, human; details: label = peptide used to generate the STCL (or pulsed control peptide)
[2] = tested on: THP-1 cells pulsed with peptide; experiment: 51Cr release cytotoxicity assay of peptide specific CD8+ T cells against peptide pulsed THP-1 cells; type: cell-based, human; details: 50:1 E:T ratio; label = peptide pulsed on targets; STCL after 2 weeks of stimulation
[3] = tested on: HLA-A2 transgenic C57B1/6 mice; type: in vivo; details: subcutaneous peptides in IFA
[4] = tested on: Uncultured PBMCs from HLA-A2 donors; type: cell-based, human

**Q.** How did the “recognition and lysis of M. bovis BCG, M. tuberculosis and rVV85A infected macrophages by peptide specific CTLs” value [1] turn out when “GLPVEYLQV (listed as Mycobacterium tuberculosis) [P48-56]” was run?
**A.** able to recognise and lyse

**Q.** And the “specific lysis of peptide pulsed THP-1 cells by P48-56 stimulated CD8^+ T cells” value [2]?
**A.** 76%

**Q.** What about the “specific lysis of peptide pulsed THP-1 cells by P242-250 reactive CD8^+ T cells” value [2] of the same sequence?
**A.** no significant lysis

**Q.** What about the “peptide specific IFNγ producing T cells in the spleens” value ([3]; 7 days post second boost) of the same sequence?
**A.** resulted in a P48-56 response

**Q.** What about the “mean number of IFN-γ sfc's enumerated from 5×10^5 PBMCs” value [4] of the same sequence?
**A.** 27

**Q.** Which “recognition and lysis of M. bovis BCG, M. tuberculosis and rVV85A infected macrophages by peptide specific CTLs” value [1] does the source give for “KLIANNTRV (listed as Mycobacterium tuberculosis) [P242-250]” here?
**A.** able to recognise and lyse

**Q.** What about the “specific lysis of peptide pulsed THP-1 cells by P242-250 reactive CD8^+ T cells” value [2] of the same sequence?
**A.** 79%

**Q.** What about the “recognition of peptide with feeder cells from wild type C57B1/6 mice” value ([3]; 7 days post first boost, lymph node) of the same sequence?
**A.** not recognised

**Q.** And the “IFNγ response to peptide in the lymph node” value ([3]; 7 days post first boost, autologous feeders)?
**A.** a response to P242-250 was seen

**Q.** And the “mean number of IFN-γ sfc's enumerated from 5×10^5 PBMCs” value [4]?
**A.** 22
